Measurements reported in patent US20250320184A1 (SIRONAX LTD., priority 2022, published 2025).

The molecules below were run against T1, SARM1 (50-724) (Homo sapiens, UniProt Q6SZW1) (assay: biochemical).
T1 sequence (Q6SZW1 50-724): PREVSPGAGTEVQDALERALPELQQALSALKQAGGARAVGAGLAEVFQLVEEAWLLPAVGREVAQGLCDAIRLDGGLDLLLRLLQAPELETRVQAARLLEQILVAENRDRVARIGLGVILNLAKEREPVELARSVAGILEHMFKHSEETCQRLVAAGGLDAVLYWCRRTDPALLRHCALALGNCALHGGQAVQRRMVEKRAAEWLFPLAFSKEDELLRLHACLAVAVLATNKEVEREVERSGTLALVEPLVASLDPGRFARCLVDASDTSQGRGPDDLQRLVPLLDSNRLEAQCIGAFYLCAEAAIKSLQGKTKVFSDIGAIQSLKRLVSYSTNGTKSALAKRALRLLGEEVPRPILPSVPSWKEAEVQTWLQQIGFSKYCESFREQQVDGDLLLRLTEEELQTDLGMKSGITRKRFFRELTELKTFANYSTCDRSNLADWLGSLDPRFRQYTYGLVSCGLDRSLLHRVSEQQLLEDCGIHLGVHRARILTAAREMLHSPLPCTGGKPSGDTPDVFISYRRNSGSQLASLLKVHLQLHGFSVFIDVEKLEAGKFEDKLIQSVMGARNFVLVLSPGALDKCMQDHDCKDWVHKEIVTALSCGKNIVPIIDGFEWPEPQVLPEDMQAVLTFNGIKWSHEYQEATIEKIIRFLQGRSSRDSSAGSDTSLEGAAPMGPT
Experimental: An enzymatic assay was performed in a 384-well plate using Dulbecco's phosphate-buffered saline (PBS) as the reaction buffer. […] The reaction was initiated by adding a mixture of 200 μM nicotinamide mononucleotide (NMN) as activator and 100 μM NAD^+ as substrate. After 1 h of incubation at room temperature, the reaction was terminated with 10 times volume of 70% acetonitrile, then centrifuged at 3800 rpm for 10 min.

IC50, > 1000 nM:
Cc1ccc(S(=O)(=O)Nc2ccc3c(c2)C(=O)NCC3)c(C)c1 [Example 3A, 2,4-dimethyl-N-(1-oxo-1,2,3,4-tetrahydroisoquinolin-7-yl)benzenesulfonamide]
O=C1NCCc2ccc(NS(=O)(=O)c3cc(F)c(F)cc3F)cc21 [Compound 35, 2,4,5-trifluoro-N-(1-oxo-1,2,3,4-tetrahydroisoquinolin-7-yl)benzenesulfonamide]
CC(Nc1ccc2c(cnn2C)c1)c1cccc(Cl)c1Cl (racemic) [Example 141, N-(1-(2,3-dichlorophenyl)ethyl)-1-methyl-1H-indazol-5-amine]
Cc1cc(F)cc(C(C#N)Nc2ccc3c(c2)C(=O)NCC3)c1 (stereo not shown) [Example 173, 2-(3-fluoro-5-methylphenyl)-2-((1-oxo-1,2,3,4-tetrahydroisoquinolin-7-yl)amino)acetonitrile]
O=C1NCCc2ccc(NS(=O)(=O)N3CCCC4CCCCC43)cc21 (mixture of isomers) [Example 170, N-(1-oxo-1,2,3,4-tetrahydroisoquinolin-7-yl)octahydroquinoline-1(2H)-sulfonamide]

IC50, < 100 nM:
O=S(=O)(Nc1ccc2cccnc2c1)c1cccc(Cl)c1Cl [Compound 42, 2,3-dichloro-N-(quinolin-7-yl)benzenesulfonamide]
CCn1nc(C(C)Nc2ccc3cc[nH]c(=O)c3c2)c(Cl)c1C (racemic) [Compound 247, 7-((1-(4-chloro-1-ethyl-5-methyl-1H-pyrazol-3-yl)ethyl)amino)isoquinolin-1(2H)-one]
Cc1nn(CC(N)=O)c(=O)c2nc(NC(C)c3nn(C)c(Cl)c3Cl)ccc12 (racemic) [Compound 330, 2-(2-((1-(4,5-dichloro-1-methyl-1H-pyrazol-3-yl)ethyl)amino)-5-methyl-8-oxopyrido[2,3-d]pyridazin-7(8H)-yl)acetamide]
O=c1[nH]ccc2ccc(NC(CCO)c3cccc(Cl)c3Cl)cc12 (racemic) [Compound 252, 7-((1-(2,3-dichlorophenyl)-3-hydroxypropyl)amino)isoquinolin-1(2H)-one]
CC(Nc1cc(F)c2ncn(-c3ccn[nH]3)c(=O)c2c1)c1nc(Cl)c(Cl)s1 (single isomer, unassigned) [Example 356]
CC1(C)C(=O)N(CC(=O)N2CCOCC2)c2cc(NS(=O)(=O)c3cccc(Cl)c3Cl)ccc21 [Example 291, 2,3-dichloro-N-(3,3-dimethyl-1-(2-morpholino-2-oxoethyl)-2-oxoindolin-6-yl)benzenesulfonamide]
O=c1[nH]ccc2ccc(NS(=O)(=O)c3c(F)ccc(Cl)c3Cl)cc12 [Compound 70, 2,3-dichloro-6-fluoro-N-(1-oxo-1,2-dihydroisoquinolin-7-yl)benzenesulfonamide]
CC(Nc1ccc2c(C(F)F)n(CC(N)=O)nc2c1)c1nc(Cl)c(Cl)s1 (racemic) [Compound 355, 2-(6-((1-(4,5-dichlorothiazol-2-yl)ethyl)amino)-3-(difluoromethyl)-2H-indazol-2-yl)acetamide]
Cn1ccc(C(=O)N2CC(C)(C)c3ccc(NS(=O)(=O)c4cccc(Cl)c4Cl)cc32)n1 [Compound 295, 2,3-dichloro-N-(3,3-dimethyl-1-(1-methyl-1H-pyrazole-3-carbonyl)indolin-6-yl)benzenesulfonamide]
CC(Nc1ccc2c(c1)C(=O)N(CC(N)=O)C2(C)C)c1nc(Cl)c(Cl)s1 (single isomer, unassigned) [Compound 320]
CCC(Nc1ccc2c(Cl)n[nH]c(=O)c2c1)c1nc(Cl)c(Cl)s1 (racemic) [Example 254, 4-chloro-7-[1-(4,5-dichlorothiazol-2-yl)propylamino]-2H-phthalazin-1-one]
CC(Nc1ccc2cc[nH]c(=O)c2c1)c1nn(C)c(C(F)F)c1Cl (racemic) [Compound 325, 7-((1-(4-chloro-5-(difluoromethyl)-1-methyl-1H-pyazol-3-yl)ethyl)amino)isoquinolin-1(2H)-one]
CC(Nc1ccc2c(c1)N(C(N)=O)CC2(C)C)c1nc(Cl)c(Cl)s1 (racemic) [Compound 276, 6-((1-(4,5-dichlorothiazol-2-yl)ethyl)amino)-3,3-dimethylindoline-1-carboxamide]
CC(Nc1nc2ccccc2s1)c1nc(Cl)c(Cl)s1 (racemic) [Compound 344, N-(1-(4,5-dichlorothiazol-2-yl)ethyl)benzo[d]thiazol-2-amine]
O=c1[nH]cnc2ccc(NS(=O)(=O)c3c(Cl)ccc(Cl)c3Cl)cc12 [Compound 82, 2,3,6-trichloro-N-(4-oxo-3H-quinazolin-6-yl)benzenesulfonamide]
CC1(C)CN(C(=O)c2cc[nH]c(=O)c2)c2cc(NS(=O)(=O)c3cccc(Cl)c3Cl)ccc21 [Compound 326, 2,3-dichloro-N-(3,3-dimethyl-1-(2-oxo-1,2-dihydropyridine-4-carbonyl)indolin-6-yl)benzenesulfonamide]

IC50, 100 to 500 nM:
CC(Nc1ccc2cc[nH]c(=O)c2c1)c1cnc(Cl)c(Cl)c1 (racemic) [Example 107, 7-((1-(5,6-dichloropyridin-3-yl)ethyl)amino)isoquinolin-1(2H)-one]
COC(=O)Cc1ccc(NS(=O)(=O)c2cccc(Cl)c2Cl)cc1 [Compound 67]
CC(Nc1ccc2ccn(C)c(=O)c2c1)c1c(Cl)cccc1Cl (racemic) [Example 151, 7-((1-(2,6-dichlorophenyl)ethyl)amino)-2-methylisoquinolin-1(2H)-one]
CC(Nc1ccc2cnn(C)c(=O)c2c1)c1cccc(Cl)c1Cl (racemic) [Example 149, 7-((1-(2,3-dichlorophenyl)ethyl)amino)-2-methylphthalazin-1(2H)-one]
O=c1[nH]ccc2ccc(OC(CO)c3cccc(Cl)c3Cl)cc12 (stereo not shown) [Example 228, 7-(1-(2,3-dichlorophenyl)-2-hydroxyethoxy)isoquinolin-1(2H)-one]
CC(Nc1ccc2c(c1)c(C(=O)N(C)C)nn2C)c1c(Cl)ccc(F)c1Cl (racemic) [Compound 245, 5-((1-(2,6-dichloro-3-fluorophenyl)ethyl)amino)-N,N1-trimethyl-1H-indazole-3-carboxamide]
Cc1c(F)cccc1S(=O)(=O)Nc1ccc2c(c1)C(=O)NCCC2 [Compound 6, 3-fluoro-2-methyl-N-(1-oxo-2,3,4,5-tetrahydro-1H-benzo[c]azepin-8-yl)benzenesulfonamide]
O=C1NCCOc2ccc(NS(=O)(=O)c3cccc(Cl)c3Cl)cc21 [Compound 206, 2,3-dichloro-N-(5-oxo-3,4-dihydro-2H-1,4-benzoxazepin-7-yl)benzenesulfonamide]
CC(Nc1ccc2c(c1)C(=O)NCN2)c1ccc(F)c(Cl)c1Cl (racemic) [Example 157, 6-((1-(2,3-dichloro-4-fluorophenyl)ethyl)amino)-2,3-dihydroquinazolin-4(1H)-one]
CC(Nc1ccc2cc[nH]c(=O)c2c1)c1nn2c(c1Cl)CCC2 (racemic) [Example 221, 7-((1-(3-chloro-5,6-dihydro-4H-pyrrolo[1,2-b]pyrazol-2-yl)ethyl)amino)isoquinolin-1(2H)-one]
